Results reported in patent US20260102383A1, “LPAR1 Inhibitors” (AbbVie Inc., priority 2024, published 2026).
Where two headings read alike, the source gives them in different places.

Target: T1, human LPAR1 (Homo sapiens, UniProt Q92633)
T1 construct: host or cells: TangoEDG2-bla U2OS cells
Test: Arrestin assay (Arrestin Reporter EDG2-bla U2OS), inhibition of LPA-stimulated signal
Format: cell-based
Conditions: TangoEDG2-bla U2OS cells expressing human LPAR1, 0.25 μM LPA
Summary of the method: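 TangoEDG2-bla U2OS cells (1×10^4/well, plated 18-20 h) were preincubated 1 h at 37 °C with compound (12-point, 3-fold, 10 μM to 0.00006 μM), then stimulated 3 h with 0.25 μM LPA final. LiveBLAzer FRET B/G 460/530 nm emission ratio gave % inhibition; IC50 from 4-parameter variable-slope fit.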

[1] = read-out: Arrestin Reporter EDG2-bla U2OS Human Merged IC50

T1 sequence (Q92633 whole entry): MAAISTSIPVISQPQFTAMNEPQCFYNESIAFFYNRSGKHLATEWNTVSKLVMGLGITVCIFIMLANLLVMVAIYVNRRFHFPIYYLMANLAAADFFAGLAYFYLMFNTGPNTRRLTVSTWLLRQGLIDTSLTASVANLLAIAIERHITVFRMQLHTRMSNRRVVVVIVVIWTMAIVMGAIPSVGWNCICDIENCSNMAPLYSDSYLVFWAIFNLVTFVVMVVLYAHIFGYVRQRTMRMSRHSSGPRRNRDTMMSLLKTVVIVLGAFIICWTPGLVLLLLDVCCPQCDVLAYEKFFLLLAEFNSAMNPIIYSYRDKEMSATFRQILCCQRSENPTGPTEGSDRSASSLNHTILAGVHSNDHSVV

SMILES | IC50 [1] | IC50 (read-out: Arrestin Reporter EDG2-bla U2OS Human IC50)
CC(C)c1ccnn1C1(C(=O)Nc2ccc(Cl)cc2OC(F)F)CCN(CC2(C(=O)O)CCOC2)CC1 (centres unmarked) [Compound 16, 3-[[4-[[4-chloro-2-(difluoromethoxy)phenyl]carbamoyl]-4-(5-isopropylpyrazol-1-yl)-1-piperidyl]methyl] tetrahydrofuran-3-carboxylic acid] | 0.0298 µM | –
COCC[C@H](CN1CCC(C(=O)Nc2ccc(Cl)cc2OC(F)F)(n2ncc3c2C(C)(C)OC3)CC1)C(=O)O [Compound 207, (2R)-2-[[4-[[4-chloro-2-(difluoromethoxy)phenyl]carbamoyl]-4-(6,6-dimethyl-4H-furo[3,4-c]pyrazol-1-yl)-1-piperidyl]methyl]-4-methoxy-butanoic acid] | 0.0937 µM | –
COC[C@@H](CN1CCC(C(=O)Nc2ccc(Cl)cc2OC(F)F)(n2ncc(F)c2C(C)C)CC1)C(=O)O [Compound 169, (2R)-2-[[4-[[4-chloro-2-(difluoromethoxy)phenyl]carbamoyl]-4-(4-fluoro-5-isopropyl-pyrazol-1-yl)-1-piperidyl]methyl]-3-methoxy-propanoic acid] | – | 0.0262 µM
CC(C)c1ccnn1C1(C(=O)Nc2ccc(Cl)cc2OC(F)F)CCN(CC(C(=O)O)C2CCOCC2)CC1 (centres unmarked) [Compound 11, 3-[4-[[4-chloro-2-(difluoromethoxy)phenyl]carbamoyl]-4-(5-isopropylpyrazol-1-yl)-1-piperidyl]-2-tetrahydropyran-4-yl-propanoic acid] | 0.0526 µM | –
CC(C)c1c(F)cnn1C1(C(=O)Nc2ccc(Cl)cc2OC(F)F)CCN(C[C@H](CO)C(=O)O)CC1 [Compound 213, (2R)-2-[[4-[[4-chloro-2-(difluoromethoxy)phenyl]carbamoyl]-4-(4-fluoro-5-isopropyl-pyrazol-1-yl)-1-piperidyl]methyl]-3-hydroxy-propanoic acid] | 0.0222 µM | –
CC(C)c1ccnn1C1(C(=O)Nc2ccc(Cl)cc2OC(F)F)CCN(CC2(C(=O)O)CC=CC2)CC1 [Compound 74, 1-[[4-[[4-chloro-2-(difluoromethoxy)phenyl]carbamoyl]-4-(5-isopropylpyrazol-1-yl)-1-piperidyl]methyl]cyclopent-3-ene-1-carboxylic acid] | 0.0108 µM | –
CC(C)c1ccnn1C1(C(=O)Nc2ccc(Cl)cc2OC(F)F)CCN(C[C@@H](C(=O)O)[C@@H](C)O)CC1 [Compound 222, (2R,3R)-2-[[4-[[4-chloro-2-(difluoromethoxy)phenyl]carbamoyl]-4-(5-isopropylpyrazol-1-yl)-1-piperidyl]methyl]-3-hydroxy-butanoic acid] | 0.0479 µM | –
CC(C)c1ccnn1C1(C(=O)Nc2ccc(Cl)cc2OC(F)F)CCN(CC(CC#N)C(=O)O)CC1 (centres unmarked) [Compound 146, 2-[[4-[[4-chloro-2-(difluoromethoxy)phenyl]carbamoyl]-4-(5-isopropylpyrazol-1-yl)-1-piperidyl]methyl]-3-cyano-propanoic acid] | 0.0156 µM | –
COc1cccc(C(CN2CCC(C(=O)Nc3ccc(Cl)cc3OC(F)F)(n3nccc3C(C)C)CC2)C(=O)O)c1 (centres unmarked) [Compound 22, 3-[4-[[4-chloro-2-(difluoromethoxy)phenyl]carbamoyl]-4-(5-isopropylpyrazol-1-yl)-1-piperidyl]-2-(3-methoxyphenyl)propanoic acid] | 0.0101 µM | –
CC(C)c1ccnn1C1(C(=O)Nc2ccc(Cl)cc2OC(F)F)CCN(C[C@@](C)(C(=O)O)C2CCOCC2)CC1 (single isomer, unassigned) [Compound 78, (2.5)-3-[4-[[4-chloro-2-(difluoromethoxy)phenyl]carbamoyl]-4-(5-isopropylpyrazol-1-yl)-1-piperidyl]-2-methyl-2-tetrahydropyran-4-yl-propanoic acid] | 0.0483 µM | –
CC(C)c1ccnn1C1(C(=O)Nc2ccc(Cl)cc2OC(F)F)CCN(CC2(C(=O)O)CCN(C(=O)OCc3ccccc3)CC2)CC1 [Compound 8, 1-benzyloxycarbonyl-4-[[4-[[4-chloro-2-(difluoromethoxy)phenyl]carbamoyl]-4-(5-isopropylpyrazol-1-yl)-1-piperidyl]methyl]piperidine-4-carboxylic acid] | 0.00331 µM | –
CC(C)c1ccnn1C1(C(=O)Nc2ccc(Cl)cc2OC(F)F)CCN(C2CC(C(=O)O)C2)CC1 (centres unmarked) [Compound 46, 3-[4-[[4-chloro-2-(difluoromethoxy)phenyl]carbamoyl]-4-(5-isopropylpyrazol-1-yl)-1-piperidyl] cyclobutanecarboxylic acid] | 0.0627 µM | –
CO[C@]1(C(=O)O)C[C@@H](N2CCC(C(=O)Nc3ccc(Cl)cc3OC(F)F)(n3nccc3C(C)C)CC2)C1 (single isomer, unassigned) [Compound 194, (1r,3r)-3-[4-[[4-chloro-2-(difluoromethoxy)phenyl]carbamoyl]-4-(5-isopropylpyrazol-1-yl)-1-piperidyl]-1-methoxy-cyclobutanecarboxylic acid] | 0.0906 µM | –
C=C(CN1CCC(C(=O)Nc2ccc(Cl)cc2OC(F)F)(n2nccc2C(C)C)CC1)C(C)(C)C(=O)O [Compound 117, 3-[[4-[[4-chloro-2-(difluoromethoxy)phenyl]carbamoyl]-4-(5-isopropylpyrazol-1-yl)-1-piperidyl]methyl]-2,2-dimethyl-but-3-enoic acid] | 0.049 µM | –
CC(C)c1ccnn1C1(C(=O)Nc2ccc(Cl)cc2OC(F)F)CCN(C[C@@H](C(=O)O)c2cccnc2)CC1 [Compound 26, (2S)-3-[4-[[4-chloro-2-(difluoromethoxy)phenyl]carbamoyl]-4-(5-isopropylpyrazol-1-yl)-1-piperidyl]-2-(3-pyridyl)propanoic acid] | 0.0245 µM | –
COCCC(=O)N1CCC(CN2CCC(C(=O)Nc3ccc(Cl)cc3OC(F)F)(n3nccc3C(C)C)CC2)(C(=O)O)CC1 [Compound 54, 4-[[4-[[4-chloro-2-(difluoromethoxy)phenyl]carbamoyl]-4-(5-isopropylpyrazol-1-yl)-1-piperidyl]methyl]-1-(3-methoxypropanoyl) piperidine-4-carboxylic acid] | 0.0565 µM | –
CC(C)c1ccnn1C1(C(=O)Nc2ccc(Cl)cc2OC(F)F)CCN(Cc2nc(C(=O)O)cs2)CC1 [Compound 37, 2-[[4-[[4-chloro-2-(difluoromethoxy)phenyl]carbamoyl]-4-(5-isopropylpyrazol-1-yl)-1-piperidyl]methyl]thiazole-4-carboxylic acid] | 0.0146 µM | –
CC(C)c1ccnn1C1(C(=O)Nc2ccc(Cl)cc2OC(F)F)CCN([C@H]2C[C@](C(=O)O)(C(F)(F)F)C2)CC1 [Compound 108, (1r,3r)-3-[4-[[4-chloro-2-(difluoromethoxy)phenyl]carbamoyl]-4-(5-isopropylpyrazol-1-yl)-1-piperidyl]-1-(trifluoromethyl)cyclobutanecarboxylic acid] | 0.0558 µM | –
CCC(=O)N1CCC(CN2CCC(C(=O)Nc3ccc(Cl)cc3OC(F)F)(n3ncc(OC)c3C(C)C)CC2)(C(=O)O)CC1 [Compound 98, 4-[[4-[[4-chloro-2-(difluoromethoxy)phenyl]carbamoyl]-4-(5-isopropyl-4-methoxy-pyrazol-1-yl)-1-piperidyl]methyl]-1-propanoyl-piperidine-4-carboxylic acid] | 0.121 µM | –
COC[C@@H](CN1CCC(C(=O)Nc2ccc(Cl)cc2OC(F)F)(n2ncc3c2C(C)(C)OC3)CC1)C(=O)O [Compound 211, (2R)-2-[[4-[[4-chloro-2-(difluoromethoxy)phenyl]carbamoyl]-4-(6,6-dimethyl-4H-furo[3,4-c]pyrazol-1-yl)-1-piperidyl]methyl]-3-methoxy-propanoic acid] | 0.0873 µM | –
COCC1(C(=O)N2CCC(CN3CCC(C(=O)Nc4ccc(Cl)cc4OC(F)F)(n4nccc4C(C)C)CC3)(C(=O)O)CC2)CCC1 [Compound 59, 4-[[4-[[4-chloro-2-(difluoromethoxy)phenyl]carbamoyl]-4-(5-isopropylpyrazol-1-yl)-1-piperidyl]methyl]-1-[1-(methoxymethyl)cyclobutanecarbonyl] piperidine-4-carboxylic acid] | 0.0264 µM | –
CC(C)c1ccnn1C1(C(=O)Nc2ccc(Cl)cc2OC(F)F)CCN(C[C@@H](CN2CCOCC2)C(=O)O)CC1 [Compound 238, (2S)-2-[[4-[[4-chloro-2-(difluoromethoxy)phenyl]carbamoyl]-4-(5-isopropylpyrazol-1-yl)-1-piperidyl]methyl]-3-morpholino-propanoic acic] | 0.126 µM | –
CC(C)c1ccnn1C1(C(=O)Nc2ccc(Cl)cc2OC(F)F)CCN(CC(C(=O)O)N2CCOCC2)CC1 (centres unmarked) [Compound 116, 3-[4-[[4-chloro-2-(difluoromethoxy)phenyl]carbamoyl]-4-(5-isopropylpyrazol-1-yl)-1-piperidyl]-2-morpholino-propanoic acid] | 0.129 µM | –
CC(C)c1ccnn1C1(C(=O)Nc2ccc(Cl)cc2OC(F)F)CCN(CC2(C(=O)O)CCN(C(=O)C[C@H]3CCOC3)CC2)CC1 [Compound 92, 4-[[4-[[4-chloro-2-(difluoromethoxy)phenyl]carbamoyl]-4-(5-isopropylpyrazol-1-yl)-1-piperidyl]methyl]-1-[2-[(3R)-tetrahydrofuran-3-yl]acetyl]piperidine-4-carboxylic acid] | 0.119 µM | –
CCC(=O)N1CCC(CN2CCC(C(=O)Nc3ccc(Cl)cc3OC(F)F)(n3nccc3C(C)C)CC2)(C(=O)O)CC1 [Compound 41, 4-[[4-[[4-chloro-2-(difluoromethoxy)phenyl]carbamoyl]-4-(5-isopropylpyrazol-1-yl)-1-piperidyl]methyl]-1-propanoyl-piperidine-4-carboxylic acid] | 0.0228 µM | –
CC(C)c1ccnn1C1(C(=O)Nc2ccc(Cl)cc2OC(F)F)CCN(C[C@H](CN2CCOCC2)C(=O)O)CC1 [Compound 239, (2R)-2-[[4-[[4-chloro-2-(difluoromethoxy)phenyl]carbamoyl]-4-(5-isopropylpyrazol-1-yl)-1-piperidyl]methyl]-3-morpholino-propanoic acid] | 0.0623 µM | –
